Measured values reported in the NIST ThermoML archive (doi:10.1016/j.jct.2016.08.001).

Tests used:
[1] = refractive index (Na D-line) (dimensionless); conditions: 100 kPa, Liquid, Standard Abbe refractometry
[2] = 100 kPa, Liquid; for speed of sound: Frequency=3 MHz, Sing-around technique in a fixed-path interferometer; for mass density: Vibrating tube method
[3] = xn = mol fraction of the nth substance listed; conditions: 100 kPa, Liquid, x1 = 1; for speed of sound: Frequency=3 MHz, Sing-around technique in a fixed-path interferometer; for mass density: Vibrating tube method
[4] = refractive index (Na D-line) (dimensionless); xn = mol fraction of the nth substance listed; conditions: 100 kPa, Liquid, Standard Abbe refractometry, x1 = 1

CCOC(=O)OCC [diethyl carbonate]
Conditions	mass density, [2] [kg/m3]	refractive index, [1]	speed of sound, [2] [m/s]
298.15 K	969.1	1.3825	1177.5
303.15 K	963.5	1.3802	1156.9
308.15 K	957.8	1.3779	1136.6
313.15 K	952.1	1.3756	1116.5
318.15 K	946.4	1.3733	1096.5
323.15 K	940.7	1.371	1076.7

CCOC(=O)OCC [diethyl carbonate] + N#Cc1ccccc1
Conditions	mass density, [3] [kg/m3]	refractive index, [4]	speed of sound, [3] [m/s]
298.15 K	969.1	1.3825	1177.5
303.15 K	963.5	1.3802	1156.9
308.15 K	957.8	1.3779	1136.6
313.15 K	952.1	1.3756	1116.5
318.15 K	946.4	1.3733	1096.5
323.15 K	940.7	1.371	1076.7

CCOC(=O)OCC [diethyl carbonate] + Nc1ccccc1
Conditions	mass density, [3] [kg/m3]	refractive index, [4]	speed of sound, [3] [m/s]
298.15 K	969.1	1.3825	1177.5
303.15 K	963.5	1.3802	1156.9
308.15 K	957.8	1.3779	1136.6
313.15 K	952.1	1.3756	1116.5
318.15 K	946.4	1.3733	1096.5
323.15 K	940.7	1.371	1076.7

CCOC(=O)OCC [diethyl carbonate] + O=Cc1ccccc1
Conditions	mass density, [3] [kg/m3]	refractive index, [4]	speed of sound, [3] [m/s]
298.15 K	969.1	1.3825	1177.5
303.15 K	963.5	1.3802	1156.9
308.15 K	957.8	1.3779	1136.6
313.15 K	952.1	1.3756	1116.5
318.15 K	946.4	1.3733	1096.5
323.15 K	940.7	1.371	1076.7
